Measurements taken from patent US20240294551A1 (AMGEN INC., priority 2022, published 2024).
Read-outs that look alike come from different tables or passages of the source.

Assays:
[1] = target: His-tagged KRAS G12D protein (Homo sapiens (Human), UniProt P01116, G12D); experiment: KRAS G12D TR-FRET Assay; type: binding
In short: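 His-tagged KRAS G12D (diluted to 20 nM in pH 7.4 HEPES buffer with 10 mM MgCl2 and 10 μM GDP) was preincubated with titrated compound for 30 min at room temperature. Biotinylated KRPep-2d peptide (diluted to 20 nM) was then added for 1 h, and displacement was monitored by TR-FRET.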

[2] = test system: Phosphorylation of ERK1/2 in AsPC-1 cells; experiment: Phospho-ERK1/2 MSD Assay; type: cell-based, human; details: Homo sapiens, ASPC1, 2 h
In short: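 Read-out: MSD electrochemiluminescent detection of phosphorylated ERK1/2 in whole-cell lysates, fitted to a 4-parameter logistic curve for IC50. Prior to lysis, AsPC-1 cells (25,000 per well) received a 2 h compound dose-response at 37 °C.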

[3] = target: GDP-bound KRAS protein (aa 1-169), containing both G12D and C118A amino acid substitutions (Homo sapiens (Human), UniProt P01116, C118A/G12D); experiment: KRAS G12D Coupled Nucleotide Exchange Assay; type: biochemical
MIA PaCa-2 cells = experiment: MIA PaCa-2 CTG Assay (CellTiter-Glo cell viability); type: cell-based, human; details: Homo sapiens, second value of the cell
Description: MIA PaCa-2 CTG Assay Protocol
MIA PaCa-2 (human pancreatic carcinoma; ATCC CRL-1420) cells were cultured in RPMI 1640 medium containing 10% fetal bovine serum and 1× penicillin/streptomycin/L-glutamine. Cells were seeded in 384-well plates at a density of 1.67E+04 cells/mL and incubated at 37° C., 5% CO2, overnight. Serially-diluted compound or DMSO was added to the cells, and plates were incubated at 37° C., 5% CO2 for 72 h. Cell viability was measured using a CellTiter-Glo® Luminescent Cell Viability Assay kit (Promega) according to the manufacturer's protocol. The luminescence signal of treated samples was normalized to DMSO control, and data were analyzed using a 4-parameter logistic model to calculate IC50 values.

AsPC-1 cells = experiment: AsPC-1 CTG Assay (CellTiter-Glo cell viability); type: cell-based, human; details: Homo sapiens, first value of the cell, read-out: G12D/C/V Cell Proliferation CTG (72 h) AsPC-1
In short: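 Human pancreatic AsPC-1 or colon SW620 cells in RPMI 1640 with 10% FBS, seeded overnight, then exposed to serially diluted compound for 72 h at 37 °C. CellTiter-Glo luminescence normalized to DMSO control; IC50 from a 4-parameter logistic model.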

[4] = read-out: KRAS G12D Binding IC50
[5] = read-out: 2 h p-ERK (AsPC-1 cells), IC50
[6] = read-out: KRAS G12D Coupled Exchange IC50
[7] = Mia PaCa-2, 72 h, read-out: G12D/C/V Cell Proliferation CTG (72 h) Mia PaCa-2
[8] = TR-FRET, read-out: KRAS G12D Binding
[9] = read-out: 2 h p-ERK (AsPC-1 cells)
[10] = 2 hours compound pre-incubation, read-out: KRAS G12D Coupled Exchange
[11] = MIA PaCa-2 cells (G12C), 72 h, read-out: G12D/C/V Cell Proliferation CTG (72 h) MIA PaCa-2
[12] = ASPC1, 72 h, AsPC-1 cells (G12D), 72 h

His-tagged KRAS G12D protein, sequence (P01116 other isoform, or with tags, fused parts or gaps G12D): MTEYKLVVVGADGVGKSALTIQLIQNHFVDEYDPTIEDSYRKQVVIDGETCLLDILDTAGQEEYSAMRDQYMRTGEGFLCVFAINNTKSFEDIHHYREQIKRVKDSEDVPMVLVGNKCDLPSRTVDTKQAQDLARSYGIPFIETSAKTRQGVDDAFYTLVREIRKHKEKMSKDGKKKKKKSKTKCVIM
GDP-bound KRAS protein (aa 1-169), containing both G12D and C118A amino acid substitutions, sequence (P01116 other isoform, or with tags, fused parts or gaps G12D/C118A): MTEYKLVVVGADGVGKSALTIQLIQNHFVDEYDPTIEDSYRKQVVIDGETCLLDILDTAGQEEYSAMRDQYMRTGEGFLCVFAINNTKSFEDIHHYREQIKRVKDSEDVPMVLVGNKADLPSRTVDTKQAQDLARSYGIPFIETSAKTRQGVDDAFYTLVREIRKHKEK

Work on `CN1C[C@H](F)C[C@H]1COc1nc2c3cnc(c(F)c3n1)-c1c(c(Cl)cc3[nH]ncc13)CCCCC(=O)O[C@@H]1CCCCN2C1` [Example 85, (26R)-18-chloro-32-fluoro-4-(((2S,4R)-4-fluoro-1-methyl-2-pyrrolidinyl)methoxy)-25-oxa-1,3,5,9,14,15-hexaazahexacyclo[24.4.1.1~6,10~.0~2,7~.0~11,19~.0~12,16~]dotriaconta-2,4,6,8,10(32),11,13,16,18-nonaen-24-one] yielded an IC50 [1, 4] of 5 nM, an IC50 [2, 5] of 58 nM and an IC50 [3, 6] of 4 nM. It also gave an IC50 (MIA PaCa-2 cells; [7]) of 400 nM and an IC50 (AsPC-1 cells; ASPC1, 72 h, AsPC-1, 72 h) of 480 nM.
`O[C@]12CCOCCc3c(Cl)cc4[nH]ncc4c3-c3ncc4c(nc(OC[C@@]56CCCN5C[C@H](F)C6)nc4c3F)N3CCC[C@@](C3)(C1)C2` [Example 397, (1S,3R)-10-chloro-32-fluoro-24-(((2R,7aS)-2-fluorotetrahydro-1H-pyrrolo[1,2-a]pyrrol-7a(5H)-yl)methoxy)-6-oxa-13,14,19,23,25,27-hexaazaheptacyclo[25.3.1.1~1,3~.1~18,22~.0~9,17~.0~12,16~.0~21,26~]tritriaconta-9,11,14,16,18(32),19,21,23,25-nonaen-3-ol] showed an IC50 [1, 8] of 4 nM, an IC50 [2, 9] of 1.4 nM and an IC50 [3, 10] of 2 nM. It also gave an IC50 (MIA PaCa-2 cells; [11]) of 3 nM and an IC50 (AsPC-1 cells; [12]) of 12 nM.
Work on `Cc1cc2[nH]ncc2c2c1CCCn1ccc(n1)[C@H]1CCCN(C1)c1nc(OC[C@@]34CCCN3C[C@H](F)C4)nc3c(F)c-2ncc13` [Example 154, (18S)-31-fluoro-25-(((2R,7aS)-2-fluorotetrahydro-1H-pyrrolo[1,2-a]pyrrol-7a(5H)-yl)methoxy)-9-methyl-5,6,14,22,24,26,30,33-octaazaheptacyclo[25.3.1.1~14,17~.1~18,22~.0~2,10~.0~3,7~.0~23,28~]tritriaconta-1(31),2,4,7,9,15,17(33),23,25,27,29-undecaene] yielded an IC50 [1, 4] of 2 nM, an IC50 [2, 5] of 252 nM and an IC50 [3, 6] of 4 nM. It also gave an IC50 (MIA PaCa-2 cells; [7]) of 230 nM and an IC50 (AsPC-1 cells; ASPC1, 72 h, AsPC-1, 72 h) of 3360 nM.
`C[C@@]12CCCCN(C1)c1nc(OC[C@@]34CCCN3C[C@H](F)C4)nc3c(F)c(ncc13)-c1c(c(Cl)cc3[nH]ncc13)CCC[C@H](F)C(=O)N2` (mixture of isomers) [Example 281, (23RS,26R)-18-chloro-23,32-difluoro-4-(((2R,7aS)-2-fluorotetrahydro-1H-pyrrolo[1,2-a]pyrrol-7a(5H)-yl)methoxy)-26-methyl-1,3,5,9,14,15,25-heptaazahexacyclo[24.4.1.1~6,10~.0~2,7~.0~11,19~.0~12,16~]dotriaconta-2,4,6,8,10(32),11,13,16,18-nonaen-24-one] was tested, and the IC50 [1, 4] was 5 nM, the IC50 [2, 5] was 7.9 nM and the IC50 [3, 6] was 2 nM. It also gave an IC50 (MIA PaCa-2 cells; [7]) of 90 nM and an IC50 (AsPC-1 cells; ASPC1, 72 h, AsPC-1, 72 h) of 104 nM.
With `O=C1OCCCc2c(Cl)cc3[nH]ncc3c2-c2c(F)cc3c(nc(OC[C@@]45CCCN4C[C@H](F)C5)nc3c2F)N2CCOC[C@H](C2)O1` [Example 187, p-(26S)-18-chloro-9,32-difluoro-4-(((2R,7aS)-2-fluorotetrahydro-1H-pyrrolo[1,2-a]pyrrol-7a(5H)-yl)methoxy)-23,25,28-trioxa-1,3,5,14,15-pentaazahexacyclo[24.4.1.1~6,10~.0~2,7~.0~11,19~.0~12,16~]dotriaconta-2,4,6,8,10(32),11,13,16,18-nonaen-24-one] the IC50 [1, 4] was 4 nM, the IC50 [2, 5] was 4.6 nM and the IC50 [3, 6] was 2 nM. It also gave an IC50 (MIA PaCa-2 cells; [7]) of 15 nM and an IC50 (AsPC-1 cells; ASPC1, 72 h, AsPC-1, 72 h) of 76 nM.
`CN(C)CC1(COc2nc3c4cnc(c(F)c4n2)-c2cc(O)cc4ccc(F)c(c24)CCCC(=O)N[C@]2(C)CCCN3C2)CC1` [Example 22, (15R)-8-((1-((Dimethylamino)methyl)cyclopropyl)methoxy)-22,31-difluoro-27-hydroxy-15-methyl-3,7,9,11,16-pentaazahexacyclo[19.7.1.1˜2,6˜.1˜11,15˜.0˜5,10˜.0˜25,29˜]hentriaconta-1(28),2(31),3,5,7,9,21,23,25(29),26-decaen-17-one bis(2,2,2-trifluoroacetate)] gave an IC50 [1, 4] of 3 nM, an IC50 [2, 5] of 5 nM and an IC50 [3, 6] of 1 nM. For the same compound, the IC50 (MIA PaCa-2 cells; [7]) was 10 nM and the IC50 (AsPC-1 cells; ASPC1, 72 h, AsPC-1, 72 h) was 108 nM.
`O=C1CC/C=C\c2c(Cl)cc3[nH]ncc3c2-c2ncc3c(nc(OC[C@@]45CCCN4C[C@H](F)C5)nc3c2F)N2CCCC(C2)O1` (stereo in doubt) [Example 35, (11Z,17S)-9-Chloro-30-fluoro-24-(((2R,7aS)-2-fluorotetrahydro-1H-pyrrolo[1,2-a]pyrrol-7a(5H)-yl)methoxy)-16-oxa-5,6,21,23,25,29-hexaazahexacyclo[24.3.1.1˜17,21˜.0˜2,10˜.0˜3,7˜.0˜22,27˜]hentriaconta-1(30),2,4,7,9,11,22,24,26,28-decaen-15-one bis(2,2,2-trifluoroacetate)] showed an IC50 [1, 4] of 1 nM, an IC50 [2, 5] of 19 nM and an IC50 [3, 6] of 1 nM. It also gave an IC50 (MIA PaCa-2 cells; [7]) of 90 nM and an IC50 (AsPC-1 cells; ASPC1, AsPC-1, 72 h) of 277 nM.
In the case of `O=C1CCCc2c(F)ccc3cccc(c23)-c2ncc3c(nc(OC[C@@]45CCCN4C[C@H](F)C5)nc3c2F)N2CC[C@H]3CCN1[C@H]3C2` [Example 72, (27S,31R)-18,33-difluoro-4-(((2R,7aS)-2-fluorotetrahydro-1H-pyrrolo[1,2-a]pyrrol-7a(5H)-yl)methoxy)-1,3,5,9,24-pentaazaheptacyclo[22.5.2.1˜6,10˜.1˜11,15˜.0˜2,7˜.0˜19,32˜.0˜27,31˜]tritriaconta-2,4,6,8,10(33),11,13,15(32),16,18-decaen-23-one], the IC50 [1, 4] is reported as 3 nM, the IC50 [2, 5] is reported as 16 nM and the IC50 [3, 6] is reported as 1 nM. For the same compound, the IC50 (MIA PaCa-2 cells; [7]) was 200 nM and the IC50 (AsPC-1 cells; ASPC1, 72 h, AsPC-1, 72 h) was 230 nM.
For `O=C1OCCc2c(Cl)cc3[nH]ncc3c2-c2ncc3c(nc(OC[C@@]45CCCN4C[C@H](F)C5)nc3c2F)N2CCOCC(CO1)C2` (stereo partly drawn) [Example 220], the IC50 [1, 4] was 6 nM, the IC50 [2, 5] was 58.9 nM and the IC50 [3, 6] was 3 nM. The IC50 (MIA PaCa-2 cells; [7]) was 64 nM and the IC50 (AsPC-1 cells; ASPC1, 72 h, AsPC-1, 72 h) was 816 nM.
`Cc1cc2[nH]ncc2c2c1CCOC(=O)O[C@H]1C[C@@]3(CCCN(C3)c3nc(OC[C@@H]4C[C@@H](F)CN4C)nc4c(F)c-2ncc34)C1` [Example 321, (1S,3R)-32-fluoro-24-(((2S,4R)-4-fluoro-1-methyl-2-pyrrolidinyl)methoxy)-10-methyl-4,6-dioxa-13,14,19,23,25,27-hexaazaheptacyclo[25.3.1.1~1,3~.1~18,22~.0~9,17~.0~12,16~.0~21,26~]tritriaconta-9,11,14,16,18(32),19,21,23,25-nonaen-5-one] gave an IC50 [1, 4] of 5 nM, an IC50 [2, 5] of 25 nM and an IC50 [3, 6] of 2 nM. The IC50 (MIA PaCa-2 cells; [7]) was 162 nM and the IC50 (AsPC-1 cells; ASPC1, 72 h, AsPC-1, 72 h) was 186 nM.
Work on `CN(C)CC1(COc2nc3c4cc(F)c(c(F)c4n2)-c2c(c(Cl)cc4[nH]ncc24)CCCOC(=O)O[C@@H]2COCCN3C2)CC1` [Example 305, p-(26S)-18-chloro-4-((1-((dimethylamino)methyl)cyclopropyl)methoxy)-9,32-difluoro-23,25,28-trioxa-1,3,5,14,15-pentaazahexacyclo[24.4.1.1~6,10~.0~2,7~.0~11,19~.0~12,16~]dotriaconta-2,4,6,8,10(32),11,13,16,18-nonaen-24-one] yielded an IC50 [1, 4] of 4 nM, an IC50 [2, 5] of 17.7 nM and an IC50 [3, 6] of 3 nM. The IC50 (MIA PaCa-2 cells; [7]) was 134 nM and the IC50 (AsPC-1 cells; ASPC1, 72 h, AsPC-1, 72 h) was 61 nM.
`Fc1c2ncc3c(nc(OC[C@@]45CCCN4C[C@H](F)C5)nc13)N1CCC[C@@H](Cc3nnc(o3)CCc3c(Cl)cc4[nH]ncc4c3-2)C1` [Example 391, (18S)-9-chloro-31-fluoro-25-(((2R,7aS)-2-fluorotetrahydro-1H-pyrrolo[1,2-a]pyrrol-7a(5H)-yl)methoxy)-33-oxa-5,6,14,15,22,24,26,30-octaazaheptacyclo[25.3.1.1~13,16~.1~18,22~.0~2,10~.0~3,7~.0~23,28~]tritriaconta-1(31),2,4,7,9,13,15,23,25,27,29-undecaene] showed an IC50 [1, 8] of 4 nM, an IC50 [2, 9] of 36.3 nM and an IC50 [3, 10] of 2 nM. It also gave an IC50 (MIA PaCa-2 cells; [11]) of 183 nM and an IC50 (AsPC-1 cells; [12]) of 265 nM.
